The supplement of paper PMC10307832

Experiments:
Assay in all cases: relative viability (nuclei count vs DMSO), 5 days (fraction); higher = more cells survive
Ponatinib + Tozasertib = compound: Cc1ccc(C(=O)Nc2ccc(CN3CCN(C)CC3)c(C(F)(F)F)c2)cc1C#Cc1cnc2cccnn12 [Ponatinib] + Cc1cc(Nc2cc(N3CCN(C)CC3)nc(Sc3ccc(NC(=O)C4CC4)cc3)n2)n[nH]1 [Tozasertib] (partner 0.1 µM)
Outline: (§1)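 Relative viability divides the nuclei count in treated wells by that in vehicle wells. Lung cancer cell lines were seeded in 1536-well plates, dosed by pin tool the next day, and fixed and stained after 5 days in one step with final 0.05% Triton X-100, 1% formaldehyde and 1 ug/ml Hoechst. Dosing was a single drug or a fixed anchor-drug dose plus five library-drug doses (not always all listed) in √10 steps, and values are medians of duplicate plates imaged at 4×.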

Pazopanib + Palbociclib = compound: Cc1ccc(Nc2nccc(N(C)c3ccc4c(C)n(C)nc4c3)n2)cc1S(N)(=O)=O [Pazopanib] + CC(=O)c1c(C)c2cnc(Nc3ccc(N4CCNCC4)cn3)nc2n(C2CCCC2)c1=O [Palbociclib] (partner 0.5 µM)
Outline: as §1

Pazopanib + Navitoclax = compound: Cc1ccc(Nc2nccc(N(C)c3ccc4c(C)n(C)nc4c3)n2)cc1S(N)(=O)=O [Pazopanib] + CC1(C)CCC(c2ccc(Cl)cc2)=C(CN2CCN(c3ccc(C(=O)NS(=O)(=O)c4ccc(N[C@H](CCN5CCOCC5)CSc5ccccc5)c(S(=O)(=O)C(F)(F)F)c4)cc3)CC2)C1 [Navitoclax] (partner 0.5 µM)
Outline: as §1

Pazopanib + Linsitinib = compound: Cc1ccc(Nc2nccc(N(C)c3ccc4c(C)n(C)nc4c3)n2)cc1S(N)(=O)=O [Pazopanib] + C[C@]1(O)C[C@@H](c2nc(-c3ccc4ccc(-c5ccccc5)nc4c3)c3c(N)nccn32)C1 [Linsitinib] (partner 1 µM)
Outline: as §1

| Cell Line | relative viability (Ponatinib + Tozasertib; first compound 0.002 µM) | relative viability (Ponatinib + Tozasertib; first compound 0.006325 µM) | relative viability (Ponatinib + Tozasertib; first compound 0.06325 µM) | relative viability (Ponatinib + Tozasertib; first compound 0.2 µM) | relative viability (Pazopanib + Palbociclib; first compound 0.01 µM) | relative viability (Pazopanib + Palbociclib; first compound 0.03162 µM) | relative viability (Pazopanib + Palbociclib; first compound 0.1 µM) | relative viability (Pazopanib + Palbociclib; first compound 0.3162 µM) | relative viability (Pazopanib + Palbociclib; first compound 1 µM) | relative viability (Pazopanib + Navitoclax; first compound 0.01 µM) | relative viability (Pazopanib + Navitoclax; first compound 0.03162 µM) | relative viability (Pazopanib + Navitoclax; first compound 0.1 µM) | relative viability (Pazopanib + Navitoclax; first compound 0.3162 µM) | relative viability (Pazopanib + Navitoclax; first compound 1 µM) | relative viability (Pazopanib + Linsitinib; first compound 0.01 µM) | relative viability (Pazopanib + Linsitinib; first compound 0.03162 µM) | relative viability (Pazopanib + Linsitinib; first compound 0.1 µM) | relative viability (Pazopanib + Linsitinib; first compound 0.3162 µM) | relative viability (Pazopanib + Linsitinib; first compound 1 µM) |
| --- | --- | --- | --- | --- | --- | --- | --- | --- | --- | --- | --- | --- | --- | --- | --- | --- | --- | --- | --- |
| NCI-H1975 | 0.677 | 0.774 | 0.275 | 0.196 | 0.531 | 0.552 | 0.608 | 0.601 | 0.557 | 1 | 1.2 | 1.17 | 1.12 | 1.02 | 0.85 | 0.943 | 0.992 | 0.929 | 0.985 |
| CAL-12T | 0.317 | 0.259 | 0.268 | 0.265 | 0.487 | 0.687 | 0.348 | 0.486 | 0.577 | 1.26 | 1.15 | 1.25 | 1.27 | 1.34 | 0.83 | 0.927 | 0.792 | 0.941 | 0.981 |
| NCI-H1623 | 0.429 | 0.426 | 0.453 | 0.419 |  |  |  |  |  |  |  |  |  |  |  |  |  |  |  |
| NCI-H2170 | 0.755 | 0.674 | 0.651 | 0.665 | 0.353 | 0.387 | 0.445 | 0.399 | 0.393 | 0.519 | 0.586 | 0.752 | 0.542 | 0.631 |  |  |  |  |  |
| NCI-H1703 |  |  |  |  |  |  |  |  |  | 0.865 | 0.925 | 0.344 | 0.256 | 0.287 | 0.441 |  | 0.264 | 0.243 | 0.301 |
| Calu-6 |  |  |  |  |  |  |  |  |  | 0.87 | 0.863 | 0.848 | 0.768 | 0.842 | 0.865 | 1.07 | 0.957 | 0.908 | 1.04 |
| EBC-1 |  |  |  |  |  |  |  |  |  | 0.364 | 0.436 | 0.454 | 0.442 | 0.427 | 0.964 | 0.979 | 0.977 | 0.922 | 0.979 |
| IA-LM |  |  |  |  |  |  |  |  |  | 0.815 | 0.782 | 0.778 | 0.792 | 0.625 | 0.428 | 0.553 | 0.527 | 0.613 | 0.622 |
| NCI-H661 | 0.36 | 0.345 | 0.351 | 0.368 | 0.376 | 0.386 | 0.427 | 0.422 | 0.396 |  |  |  |  |  | 0.44 | 0.637 | 0.581 | 0.541 | 0.672 |
| NCI-H596 | 0.914 | 0.911 | 0.734 | 0.743 |  |  |  |  |  | 0.843 | 0.997 | 0.978 | 0.924 | 0.837 | 0.833 | 1.12 | 1.24 | 1.06 | 1.03 |
| NCI-H650 | 0.685 | 0.707 | 0.712 | 0.618 | 0.344 | 0.381 | 0.355 | 0.337 | 0.315 |  |  |  |  |  | 0.738 | 1.1 | 0.808 | 0.92 | 0.839 |
| NCI-H1792 |  |  |  |  |  | 0.632 | 0.598 | 0.649 | 0.71 |  | 0.62 | 0.58 | 0.627 | 0.569 |  | 0.534 | 0.601 | 0.522 | 0.588 |
| ChaGo-K-1 | 0.234 | 0.213 | 0.177 | 0.209 | 0.949 | 0.927 | 0.973 | 0.927 | 0.873 | 0.935 | 1.07 | 0.997 | 0.792 | 1.06 |  |  |  |  |  |
| NCI-H2342 | 0.489 | 0.639 | 0.403 | 0.591 | 0.538 | 0.501 | 0.496 | 0.489 | 0.515 |  |  |  |  |  |  |  |  |  |  |
| NCI-H1299 |  |  |  |  |  |  |  |  |  | 1.04 | 1.03 | 1.03 | 1.1 | 1.02 | 0.902 | 1.02 | 1.01 | 0.97 | 0.932 |
| NCI-H1650 | 0.323 | 0.411 | 0.348 | 0.304 | 0.333 | 0.433 | 0.375 | 0.349 | 0.393 | 1.28 | 1.26 | 1.44 | 1.18 | 1.04 |  |  |  |  |  |
| SW 900 | 0.58 | 0.51 | 0.337 | 0.38 | 0.463 | 0.636 |  | 0.65 | 0.595 |  |  |  |  |  |  |  |  |  |  |
| NCI-H1648 | 0.464 | 0.361 | 0.577 | 0.283 |  |  | 0.229 | 0.281 | 0.279 |  |  |  |  |  |  |  |  |  |  |
| NCI-H522 | 0.51 | 0.543 | 0.476 | 0.455 | 0.973 | 0.97 | 1.05 | 0.887 | 0.883 |  |  |  |  |  |  |  |  |  |  |
| A549 |  |  |  |  |  |  |  |  |  | 1.16 | 1.18 | 1.21 | 1.21 | 1.26 | 0.452 | 0.638 | 0.591 | 0.598 | 0.757 |
| NCI-H358 | 0.0953 | 0.101 | 0.0969 | 0.165 | 0.134 | 0.141 | 0.121 | 0.112 | 0.122 |  |  |  |  |  | 0.875 | 0.626 | 0.82 | 0.993 | 0.821 |
| NCI-H1563 |  |  |  |  |  |  |  |  |  |  |  |  |  |  | 1.13 | 1.18 | 1.25 | 1.3 | 1.18 |
| ABC-1 | 0.213 | 0.147 | 0.141 | 0.204 | 0.407 | 0.799 | 0.788 | 1.13 | 0.784 |  |  |  |  |  | 0.835 | 0.917 | 0.751 | 0.738 | 0.779 |
| LCLC-103H | 0.527 | 0.534 | 0.522 | 0.404 | 0.409 | 0.517 | 0.495 | 0.439 | 0.5 |  |  |  |  |  | 0.846 | 1.22 | 1.06 | 1.04 | 1.14 |
